In paper PMC13172357 (Nature Communications, 2026):
Several values for one entry are separate records, joined by “and”; a condition that tells them apart may be missing. Identical values can stand only once.

Experiments:
Format in all cases: cell-based
USP7 [1] = molecular target: T1, USP7 (Homo sapiens, UniProt Q93009); assay: USP7 degradation, Western blot densitometry, Ma-Mel-47 cells; details: for USP7 degradation (in words): 24 h; for DC50: read-out: DC50 (half-maximal degradation concentration); for USP7 levels in time course (in words): over 24 h
T1 construct: allowed the analysis of endogenous USP7 degradation in both cell lines; endogenous in cells; host or cells: Panc89 (PDAC) and Ma-Mel-47 (melanoma) cells
T1 sequence (Q93009 whole entry): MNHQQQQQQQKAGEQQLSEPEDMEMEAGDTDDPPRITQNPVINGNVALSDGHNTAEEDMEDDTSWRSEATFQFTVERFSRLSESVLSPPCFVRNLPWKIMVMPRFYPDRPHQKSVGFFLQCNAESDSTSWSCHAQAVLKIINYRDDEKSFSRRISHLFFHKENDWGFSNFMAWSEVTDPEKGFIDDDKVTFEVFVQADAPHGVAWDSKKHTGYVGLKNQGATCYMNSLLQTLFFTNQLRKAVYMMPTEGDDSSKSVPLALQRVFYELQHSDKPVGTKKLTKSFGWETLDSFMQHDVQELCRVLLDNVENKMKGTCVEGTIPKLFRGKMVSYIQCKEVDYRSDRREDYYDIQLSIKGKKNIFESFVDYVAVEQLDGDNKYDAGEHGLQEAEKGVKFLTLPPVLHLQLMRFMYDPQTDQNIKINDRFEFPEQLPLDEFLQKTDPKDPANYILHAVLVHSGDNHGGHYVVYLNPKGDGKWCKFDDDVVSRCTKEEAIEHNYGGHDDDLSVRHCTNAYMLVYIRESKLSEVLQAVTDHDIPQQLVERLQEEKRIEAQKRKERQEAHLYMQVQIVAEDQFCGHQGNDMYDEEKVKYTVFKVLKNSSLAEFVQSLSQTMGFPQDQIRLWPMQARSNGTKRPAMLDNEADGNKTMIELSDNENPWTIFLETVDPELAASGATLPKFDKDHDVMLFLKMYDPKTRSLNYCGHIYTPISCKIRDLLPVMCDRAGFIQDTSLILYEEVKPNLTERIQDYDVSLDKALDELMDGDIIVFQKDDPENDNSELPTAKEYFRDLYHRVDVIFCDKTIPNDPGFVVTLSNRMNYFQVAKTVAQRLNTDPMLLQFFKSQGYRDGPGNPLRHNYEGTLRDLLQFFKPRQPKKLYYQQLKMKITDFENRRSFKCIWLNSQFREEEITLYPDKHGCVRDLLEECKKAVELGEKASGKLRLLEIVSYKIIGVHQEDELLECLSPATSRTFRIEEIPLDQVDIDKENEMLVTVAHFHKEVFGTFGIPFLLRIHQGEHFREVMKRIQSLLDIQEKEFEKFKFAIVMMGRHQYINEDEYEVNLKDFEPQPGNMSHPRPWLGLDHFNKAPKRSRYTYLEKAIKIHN
Procedure: (§1) The melanoma cell line Ma-Mel-47 (established previously[57] from metastatic lesions from patient tumor tissues after written informed consent) and the PDAC cell line Panc89 (RRID: CVCL_4056, also referenced as T3M-4[58]) were cultured in a humidified incubator with 5% CO2 at 37 °C in RPMI1640 (Ma-Mel-47) / DMEM (Panc89) medium containing 10% (v/v) fetal calf serum (FCS) and penicillin/streptomycin (all Gibco, Thermo Fisher Scientific). Studies on human material were approved by the institutional review board. […] Testing for mycoplasma was performed by PCR monthly. To confirm cell identity, STR analysis was performed by the Microsynth Seqlab GmbH.
(§2) To prepare samples for Western blot analysis, cells were seeded in 6-well dishes the day before treatment to adhere at 70–80% confluency.
(§3) Cell pellets of all PDAC samples were lysed via adding a buffer containing 150 mM NaCl, 50 mM Tris/HCl (pH 7.4), 1% Triton X-100, 10 mM EDTA, 1 mM PMSF, 10 mM orthovanadate, and 1% aprotinin, incubating on ice for 1 h with vortexing every 15 minutes. Lysates were cleared of cell debris by centrifugation at 10,000 ×g at 4 °C for 10 min. […] Lysates were then clarified of cell debris by centrifugation at 13,000 ×g at 4 °C for 15 min. Thereafter, the total protein concentrations were either determined immediately or the protein extracts were stored at −20 or −80 °C. Pellets for samples shown in Fig. 6 and Supplementary Fig. 6 were lysed in 120 µL lysis buffer (50 mM Tris pH 8.0, 150 mM NaCl, 1% (v/v) IGEPAL, 0.5% (w/v) Na-deoxycholate, 0.1% (w/v) SDS) supplemented with 1x EDTA-free inhibitor protease cocktail (cOmplete, Roche) for 15 min at 4 °C. 0.2 µL Turbonuclease (Sigma Aldrich) and 5 mM MgCl2 were then added and lysates were incubated for 15 min at 4 °C. Cell debris was separated by centrifugation at 20,817 ×g for 15 min at 4 °C.
(§4) Protein concentrations of cell lysates were measured using the Pierce BCA Protein Assay (Thermo Fisher Scientific) or the Quick Start Bradford Protein Assay (Bio-Rad), following the manufacturers’ protocols. Measurements were recorded on Tecan Spark or Tecan Infinite M200 plate readers. Lysates were kept on ice throughout the entire process.
(§5) To separate proteins via SDS-PAGE, 10-20 µg of protein in lysis buffer was diluted with SDS-PAGE loading buffer (for most blots containing DTT or 2-mercaptoethanol) and denatured at 95 °C for 5 min. Protein separation was conducted at 95–110 V using the Mini-PROTEAN electrophoresis system (Bio-Rad). Proteins were then transferred to PVDF or nitrocellulose membranes using the Trans-Blot Turbo system (Bio-Rad) with the Trans-Blot Turbo RTA Kit for PVDF membranes. Prior to transfer, membranes were activated by soaking in 100% ethanol (for PVDF) or distilled water (for nitrocellulose) and proteins were transferred using the Mixed MW or the standard (1.0 A, 25 V, 30 min) protocol.
(§6) After transfer, membranes were blocked in 5% (w/v) milk/TBS-T for 1 h and then washed three times for 10 min with TBS-T. They were incubated overnight at 4 °C with the primary antibody in 5% (w/v) milk/TBS-T or 1% (w/v) BSA/TBS-T. Membranes were then washed three times for 10 min with TBS-T and incubated with horseradish peroxidase (HRP)-conjugated secondary antibodies in a solution of 5% (w/v) BSA/TBS-T or 1% (w/v) milk/TBS-T for 1 h at room temperature. PBS-T was used for blots shown in Fig. 6 and Supplementary Fig. 6.
(§7) Membranes were incubated with Clarity Western ECL substrate (Bio-Rad) for PDAC samples or Pierce ECL Western Blotting-Substrate (Thermo Fisher Scientific) for melanoma. Chemiluminescent signals were detected with a ChemiDoc Imaging System (Bio-Rad) for PDAC samples or with a ECL Chemostar Imager (Intas Science Imaging) for melanoma samples.
(§8) Densitometric quantification of band intensities for Fig. 2c, d was performed using the ImageJ software.

[2] = molecular target: T2, NanoLuc-USP7 and HaloTag-VHL (Homo sapiens, UniProt P40337+Q93009); assay: Cellular ternary complex formation assay (NanoBRET), HEK293T cells; details: for Ternary complex induction (in words): NanoBRET
T2 construct: expressed in transfected cells; host or cells: HEK293T, transient transfection (FuGENE HD)
T2 sequence (Q93009 whole entry): as above
T2 sequence (P40337 whole entry): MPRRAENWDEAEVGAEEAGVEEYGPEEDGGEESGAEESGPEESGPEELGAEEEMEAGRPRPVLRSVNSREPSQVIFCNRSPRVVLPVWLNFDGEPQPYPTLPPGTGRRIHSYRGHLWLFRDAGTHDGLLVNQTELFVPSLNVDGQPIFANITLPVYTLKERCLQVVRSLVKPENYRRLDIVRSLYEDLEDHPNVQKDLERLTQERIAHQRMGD
T2 sequence (Q15370 whole entry partner): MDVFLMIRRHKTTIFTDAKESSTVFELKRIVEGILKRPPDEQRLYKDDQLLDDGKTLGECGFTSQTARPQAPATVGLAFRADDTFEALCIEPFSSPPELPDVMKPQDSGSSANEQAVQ
T2 sequence (Q15369 whole entry partner): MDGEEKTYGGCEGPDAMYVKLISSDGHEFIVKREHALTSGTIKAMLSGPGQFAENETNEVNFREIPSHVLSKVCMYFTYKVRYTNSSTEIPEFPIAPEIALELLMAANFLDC
Procedure: The assay was performed as described step-by-step elsewhere. USP7 (NanoLuc-USP7) and VHL (HaloTag-VHL) were cloned in frame with N-terminal NanoLuc or HaloTag, respectively. For transfections, HEK293T cells were diluted in Opti-MEM medium without phenol red (Life Technologies) to 4×10^5 cells/mL and 9 µL were pipetted into each well of a white 384-well plate (Greiner 781207). 1 mL transfection mix was prepared containing 30 µL FuGENE HD (Promega, E2312) and 8 µL of each plasmid, incubated 20 min at RT and 1 µL were pipetted into each well leading to the total assay volume of 10 µL. […] 2 h prior to BRET measurements, the compounds were titrated to the cells using an Echo acoustic dispenser and the cells were incubated further at 37 °C and 5% CO2 to allow complex formation. NanoBRET Nano-Glo substrate and Extracellular NanoLuc Inhibitor (Promega, N2540) were then added as per the manufacturer’s protocol, and filtered luminescence was recorded on a PHERAstar FSX plate reader (BMG Labtech) equipped with a luminescence filter pair (donor: 450 nm BP filter; acceptor: 610 nm LP filter). Data were analyzed using GraphPad Prism 10 software.

USP7 [3] = molecular target: T1, USP7; assay: USP7 degradation, Western blot densitometry, Panc89 cells; details: for DC50: read-out: DC50 (half-maximal degradation concentration); for USP7 degradation (in words): 24 h
Procedure: as §1, §2, §3, §4, §5, §6, §7, §8

[4] = Ma-Mel-47, 24 h, Western blot densitometry
[5] = Panc89, 24 h, Western blot densitometry

Compound | Time after which USP7 degradation was observed (USP7 [1]; Ma-Mel-47, 1 µM) | USP7 degradation (in words) (USP7 [1]; Ma-Mel-47, 5 µM, Western blot) | Dmax (USP7 [1]; [4]) | DC50 (USP7 [1]; [4]) | Ternary complex induction (in words) [2] | Time after which USP7 degradation was observed (USP7 [3]; Panc89, 1 µM) | DC50 (USP7 [3]; [5]) | USP7 degradation (in words) (USP7 [3]; Panc89, increasing concentrations) | USP7 levels in time course (in words) (USP7 [1]; Ma-Mel-47, 1 µM) | USP7 levels in time course (in words) (USP7 [3]; Panc89, 1 µM, over 24 h) | USP7 degradation (in words) (USP7 [1]; Ma-Mel-47, 1 µM) | EC50 ([2]; compound 2 h prior BRET measurement, read-out: EC50 (half-maximal ternary complex formation concentration)) | USP7 degradation (in words) (USP7 [3]; Panc89, 5 µM, Western blot) | Concentration of near complete degradation of USP7 (USP7 [3]; Panc89, 24 h) | Dmax (USP7 [3]; [5])
Cc1ncsc1-c1ccc([C@H](C)NC(=O)[C@@H]2C[C@@H](O)CN2C(=O)[C@@H](NC(=O)C23C4C5C2C2C3C4C52C(=O)N2CCC(C3CCN(c4ccc(-n5ncc6c(=O)n(CC7(O)CCN(C(=O)C[C@@H](C)c8ccccc8)CC7)cnc65)cc4)CC3)CC2)C(C)(C)C)cc1 (stereo partly shown) [NK266] | 16 h | higher potency | 94% | 29 nM | did not increase the BRET signal to the same level | 16 h and 16 to 24 h | 49 nM | near complete degradation of USP7 | – | – | – | – | – | – | –
Cc1ncsc1-c1ccc(CNC(=O)[C@@H]2C[C@H](O)CN2C(=O)[C@@H](NC(=O)[C@H]2CC[C@H](C(=O)N3CCN(c4ccc(-n5ncc6c(=O)n(CC7(O)CCN(C(=O)C[C@@H](C)c8ccccc8)CC7)cnc65)cc4)CC3)CC2)C(C)(C)C)cc1 [NK245] | – | – | – | – | neither the negative control NK245 nor the VHL ligand VH298 induced a ternary complex | – | – | – | did not reduce protein levels | did not reduce protein levels | – | – | – | – | –
Cc1ncsc1-c1ccc([C@H](C)NC(=O)[C@@H]2C[C@@H](O)CN2C(=O)[C@@H](NC(=O)[C@H]2CC[C@H](C(=O)N3CCN(c4ccc(-n5ncc6c(=O)n(CC7(O)CCN(C(=O)C[C@@H](C)c8ccccc8)CC7)cnc65)cc4)CC3)CC2)C(C)(C)C)cc1 [NK250] | – | – | – | 154 ± 38 nM | – | – | 8 nM | – | weak effects | – | not able to fully degrade USP7 | 58 nM | complete degradation | ~100 nM | 98%
